Measured values as given in the supplement of paper PMC10307832.

Tests used:
Test in all cases: relative viability (nuclei count vs DMSO), 5 days (fraction); higher = more cells survive
[1] = compound: Cn1cc(-c2cnc3ccc4ccc(CS(=O)(=O)NCc5ccccn5)cc4c(=O)c3c2)cn1 [MK-8033] + C[C@@H](Oc1cc(-c2cnn(C3CCNCC3)c2)cnc1N)c1c(Cl)ccc(F)c1Cl [Crizotinib] (partner 1 µM)
In short: (§1)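 Medians of duplicate plates are given as relative viability. That measure is the nuclei count in treated wells divided by the count in vehicle wells. Counts were taken on 4× images of lung cancer cell lines in 1536-well plates, 5 days after pin-tool dosing the day after seeding with one drug alone or a fixed anchor-drug dose plus five library-drug doses (not always all listed) in √10 steps.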

[2] = compound: Cn1cc(-c2cnc3ccc4ccc(CS(=O)(=O)NCc5ccccn5)cc4c(=O)c3c2)cn1 [MK-8033] + Cc1nc(NC(=O)N2CCC[C@H]2C(N)=O)sc1-c1ccnc(C(C)(C)C(F)(F)F)c1 [Alpelisib] (partner 2 µM)
In short: as §1

[3] = compound: Cn1cc(-c2cnc3ccc4ccc(CS(=O)(=O)NCc5ccccn5)cc4c(=O)c3c2)cn1 [MK-8033] + COc1cccc2cc(-c3nc([C@H]4CC[C@H](C(=O)O)CC4)n4ncnc(N)c34)[nH]c12 [OSI-027] (partner 0.5 µM)
In short: as §1

[4] = compound: Cn1cc(-c2cnc3ccc4ccc(CS(=O)(=O)NCc5ccccn5)cc4c(=O)c3c2)cn1 [MK-8033] + COc1cc2c(Oc3ccc(NC(=O)C4(C(=O)Nc5ccc(F)cc5)CC4)cc3F)ccnc2cc1OCCCN1CCOCC1 [Foretinib] (partner 0.25 µM)
In short: as §1

Cell Line: H3255
- relative viability ([1]; first compound 0.02 µM): 0.951
- relative viability ([1]; first compound 0.06325 µM): 0.759
- relative viability ([1]; first compound 0.2 µM): 0.775
- relative viability ([1]; first compound 0.6325 µM): 0.625
- relative viability ([1]; first compound 2 µM): 0.787
- relative viability ([2]; first compound 0.02 µM): 0.643
- relative viability ([2]; first compound 0.06325 µM): 0.571
- relative viability ([2]; first compound 0.2 µM): 0.562
- relative viability ([2]; first compound 0.6325 µM): 0.695
- relative viability ([2]; first compound 2 µM): 0.608
- relative viability ([3]; first compound 0.02 µM): 0.621
- relative viability ([3]; first compound 0.06325 µM): 0.551
- relative viability ([3]; first compound 0.2 µM): 0.597
- relative viability ([3]; first compound 0.6325 µM): 0.491
- relative viability ([3]; first compound 2 µM): 0.639
- relative viability ([4]; first compound 0.02 µM): 0.848
- relative viability ([4]; first compound 0.06325 µM): 0.619
- relative viability ([4]; first compound 0.2 µM): 0.831
- relative viability ([4]; first compound 0.6325 µM): 0.596
- relative viability ([4]; first compound 2 µM): 0.757

Cell Line: HARA
- relative viability ([1]; first compound 0.02 µM): 0.964
- relative viability ([1]; first compound 0.06325 µM): 1.05
- relative viability ([1]; first compound 0.2 µM): 0.921
- relative viability ([1]; first compound 0.6325 µM): 1.08
- relative viability ([1]; first compound 2 µM): 1.04
- relative viability ([2]; first compound 0.02 µM): 0.777
- relative viability ([2]; first compound 0.06325 µM): 0.742
- relative viability ([2]; first compound 0.2 µM): 0.76
- relative viability ([2]; first compound 0.6325 µM): 0.743
- relative viability ([2]; first compound 2 µM): 0.871
- relative viability ([3]; first compound 0.02 µM): 0.569
- relative viability ([3]; first compound 0.06325 µM): 0.265
- relative viability ([3]; first compound 0.2 µM): 0.487
- relative viability ([3]; first compound 0.6325 µM): 0.429
- relative viability ([3]; first compound 2 µM): 0.418
- relative viability ([4]; first compound 0.02 µM): 0.772
- relative viability ([4]; first compound 0.06325 µM): 0.781
- relative viability ([4]; first compound 0.2 µM): 0.884
- relative viability ([4]; first compound 0.6325 µM): 0.548
- relative viability ([4]; first compound 2 µM): 0.997

Cell Line: HCC-15
- relative viability ([1]; first compound 0.02 µM): 0.778
- relative viability ([1]; first compound 0.06325 µM): 0.796
- relative viability ([1]; first compound 0.2 µM): 0.762
- relative viability ([1]; first compound 0.6325 µM): 0.816
- relative viability ([1]; first compound 2 µM): 0.808
- relative viability ([2]; first compound 0.02 µM): 0.847
- relative viability ([2]; first compound 0.06325 µM): 0.947
- relative viability ([2]; first compound 0.2 µM): 0.863
- relative viability ([2]; first compound 0.6325 µM): 0.841
- relative viability ([2]; first compound 2 µM): 0.875
- relative viability ([3]; first compound 0.02 µM): 0.692
- relative viability ([3]; first compound 0.06325 µM): 0.588
- relative viability ([3]; first compound 0.2 µM): 0.64
- relative viability ([3]; first compound 0.6325 µM): 0.648
- relative viability ([3]; first compound 2 µM): 0.656
- relative viability ([4]; first compound 0.02 µM): 0.977
- relative viability ([4]; first compound 0.06325 µM): 0.919
- relative viability ([4]; first compound 0.2 µM): 0.994
- relative viability ([4]; first compound 0.6325 µM): 1.04
- relative viability ([4]; first compound 2 µM): 1.02

Cell Line: HCC-44
- relative viability ([1]; first compound 0.02 µM): 0.808
- relative viability ([1]; first compound 0.06325 µM): 0.732
- relative viability ([1]; first compound 0.2 µM): 0.755
- relative viability ([1]; first compound 0.6325 µM): 0.746
- relative viability ([1]; first compound 2 µM): 0.756
- relative viability ([2]; first compound 0.02 µM): 0.798
- relative viability ([2]; first compound 0.06325 µM): 0.775
- relative viability ([2]; first compound 0.2 µM): 0.751
- relative viability ([2]; first compound 0.6325 µM): 0.796
- relative viability ([2]; first compound 2 µM): 0.789
- relative viability ([3]; first compound 0.02 µM): 0.472
- relative viability ([3]; first compound 0.06325 µM): 0.508
- relative viability ([3]; first compound 0.2 µM): 0.465
- relative viability ([3]; first compound 0.6325 µM): 0.605
- relative viability ([3]; first compound 2 µM): 0.522

Cell Line: HCC-78
- relative viability ([1]; first compound 0.02 µM): 0.336
- relative viability ([1]; first compound 0.06325 µM): 0.316
- relative viability ([1]; first compound 0.2 µM): 0.344
- relative viability ([1]; first compound 2 µM): 0.32
- relative viability ([2]; first compound 0.02 µM): 0.271
- relative viability ([2]; first compound 0.06325 µM): 0.293
- relative viability ([2]; first compound 0.2 µM): 0.267
- relative viability ([2]; first compound 2 µM): 0.357
- relative viability ([3]; first compound 0.02 µM): 0.352
- relative viability ([3]; first compound 0.2 µM): 0.329
- relative viability ([3]; first compound 0.6325 µM): 0.34
- relative viability ([3]; first compound 2 µM): 0.398
- relative viability ([4]; first compound 0.02 µM): 0.444
- relative viability ([4]; first compound 0.2 µM): 0.548
- relative viability ([4]; first compound 0.6325 µM): 0.575
- relative viability ([4]; first compound 2 µM): 0.55

Cell Line: HCC-366
- relative viability ([1]; first compound 0.02 µM): 0.45
- relative viability ([1]; first compound 0.06325 µM): 0.525
- relative viability ([1]; first compound 0.2 µM): 0.59
- relative viability ([1]; first compound 0.6325 µM): 0.363
- relative viability ([1]; first compound 2 µM): 0.504
- relative viability ([2]; first compound 0.02 µM): 0.409
- relative viability ([2]; first compound 0.06325 µM): 0.435
- relative viability ([2]; first compound 0.2 µM): 0.325
- relative viability ([2]; first compound 0.6325 µM): 0.376
- relative viability ([2]; first compound 2 µM): 0.325
- relative viability ([3]; first compound 0.02 µM): 1.1
- relative viability ([3]; first compound 0.06325 µM): 0.85
- relative viability ([3]; first compound 0.2 µM): 0.838
- relative viability ([3]; first compound 0.6325 µM): 0.945
- relative viability ([3]; first compound 2 µM): 0.791
- relative viability ([4]; first compound 0.02 µM): 0.965
- relative viability ([4]; first compound 0.06325 µM): 0.864
- relative viability ([4]; first compound 0.2 µM): 0.929
- relative viability ([4]; first compound 0.6325 µM): 0.965
- relative viability ([4]; first compound 2 µM): 0.962

Cell Line: HCC-827
- relative viability ([1]; first compound 0.02 µM): 0.925
- relative viability ([1]; first compound 0.2 µM): 0.955
- relative viability ([1]; first compound 0.6325 µM): 0.874
- relative viability ([1]; first compound 2 µM): 0.885
- relative viability ([2]; first compound 0.02 µM): 1.01
- relative viability ([2]; first compound 0.2 µM): 1.07
- relative viability ([2]; first compound 0.6325 µM): 0.908
- relative viability ([2]; first compound 2 µM): 0.91
- relative viability ([3]; first compound 0.02 µM): 0.774
- relative viability ([3]; first compound 0.2 µM): 0.735
- relative viability ([3]; first compound 0.6325 µM): 0.801
- relative viability ([3]; first compound 2 µM): 0.758
- relative viability ([4]; first compound 0.02 µM): 1.1
- relative viability ([4]; first compound 0.2 µM): 0.989
- relative viability ([4]; first compound 0.6325 µM): 0.967
- relative viability ([4]; first compound 2 µM): 1.03
